Test results from patent US8729034B2, “Pharmaceutical composition having virucidal and spermicidal activity” (priority 2007, dated 2014).
Values joined by “and” are separate entries in the source; they are usually repeats but may differ in a detail not shown here. Equal values may be shown once.

Columns and labels:
rat spermatozoa = assay: Sander & Cramer spermicidal assay (in vitro); assay type: cell-based
Procedure: (§1) Sexually mature male mice and rats were autopsied following euthanasia by an overdose of Ketamin (≧200 mg/kg body weight; injected i.p.) and their cauda epididymis were excised. Working suspension of animal spermatozoa was prepared with the exudates obtained after careful pricking of the cauda epididymis with an injection needle (18 G) and the exudates were collected in a conical centrifuge tube.
(§2) The exudates/liquefied human semen samples were suspended in BWW medium (pre equilibrated at 37 degree C.). The spermatozoa with forward motility were separated from immotile or sluggishly motile cells by the swim-up technique and were allowed to disperse evenly within a CO2 incubator at 37 degree C. At least five aliquots from each sample was used to prepare the working spermatozoa suspension. The swim up procedure was as follows:
(§3) Pre equilibrated BWW medium (1.25 ml) was gently layered over cauda-exudates or liquefied human semen (1 ml) in a sterile 15 ml conical-based centrifuge tube. The tube was inclined at an angle of 45 degree and incubated for 1 hour at 37 degree C. in a CO2-incubator. It was then gently returned to the upright position and the uppermost 1 ml medium with a turbid appearance was removed. This aliquot of motile cells was pooled from each set, then diluted with same volumes of pre equilibrated BWW medium, centrifuged at 500 g for 5 minutes and finally resuspended in 1 ml pre equilibrated BWW medium to obtain a working suspension. The sperm cells were counted in a Makler chamber (Zygotec Systems, Springfield, M A, USA) and finally a working spermatozoa suspension having concentration of 25 to 30×10^6 cells/ml was prepared.
(§4) For in vitro assay of spermicidal effect, sperms collected from proven male rats and mice, and motile spermatozoa from liquefied human semen were used.
(§5) The assay was done following the Sander & Cramer assay method. Two hundred micro liter (200 microliters) of working spermatozoa suspension was added to 1 ml solution of test material in BWW medium and mixed on a light vortex for 10 seconds. A wet mount was immediately prepared on a clean microscopy glass slide and examined (at ×100) under a phase contrast microscope (Leitz, Biomed). The weakest concentration that immobilized all spermatozoa within 20 seconds of mixing was recorded as MEC. At least five fields were examined for each wet mount preparation. The observation was repeated with five individual spermatozoa suspension for each concentration of test compound solution. For negative control, saponin solutions were replaced by equal volume of BWW medium, while Nonoxynol 9 was used as positive control.

mouse spermatozoa = assay: Sander & Cramer spermicidal assay (in vitro); assay type: cell-based
Procedure: as §1, §2, §3, §4, §5

human sperm = assay: Modified Kremer-Test, cervical mucus penetration (Experiment B); assay type: cell-based; conditions: treated at MEC; 30 minutes at 37 degree C
Source text: A modified Kremer-Test was used for assessment of cervical mucus penetrating capacity of treated sperm. A drop of human mid-cycle cervical mucus was placed on a slide and flattened by a cover slip (22 mm×22 mm). A drop of human sperm suspension treated with the test compounds (at MEC) was deposited at the side of the cover slip and in contact with the edge, the sperm suspension moved in under the cover slip by capillary force and a clear interface was obtained between the sperm suspension and the cervical mucus. The slide preparation was placed within a CO2 incubator at 37 degree C. for 30 minutes. Suitable control sets were prepared side by side. Each preparation was examined under a phase contrast microscope to observe the entry of spermatozoa into the cervical mucus zone.

NL4.3 virus = assay: Anti-HIV activity in P4 (Hela-CD4-LTR-β Gal) cells (p24 ELISA, X-gal staining); assay type: cell-based, HIV-1; conditions: for Percentage inhibition of hiv growth in p4 cell line, Without Pretreatment: untreated virus; for Inhibition of viral transmission, Ac-B-treated virus: subsequent culture with or without Ac-B
Procedure: P4 (Hela-CD4-LTR-β Gal) cells were infected with 0.05 MOI of NL4.3 virus pretreated without or with Ac-B at varying concentrations (1 hour at 37 degree C.) followed by incubation for 48 hours in the presence or absence of Ac-B at a concentration of 0.5 to 2.5 microgram per ml. Virus production was analyzed by ELISA of p24 antigen in the culture supernatant. Viral transmission in the transfected cells was evaluated by X-gal staining, in which an antiretroviral therapeutic drug, Azidothymidine (AZT) was used as positive control.

human spermatozoa = assay: Sander & Cramer spermicidal assay (in vitro); assay type: cell-based
Procedure: as §2, §3, §4, §5

[1] = test system: Salmonella typhimurium TA100; assay: Bacterial reverse mutation assay (MUTA-CHROMOPLATE kit)
Source text: Ac-B was examined for its ability to produce mutations/revert mutations in a bacterial reverse mutation assay using amino acid-requiring strain of Salmonella typhimurium (S. typhimurium) TA100 and the result was compared with a known mutagen (Na-azide). A commercial kit (The MUTA-CHROMOPLATE) from M/s Environmental Biodetection Products Inc. Ontario, Canada, was used. Suspensions of bacterial cells were exposed to the test substance in the presence and in the absence of an exogenous metabolic activation system. After 5 days of incubation, revertant colonies were detected by the change of colour from blue to yellow on solvent control plates. All yellow, partially yellow or turbid wells were scored as positive, while all purple wells were scored as negative. Number of positive wells for each plate was recorded, their number was counted and compared to that of spontaneous revertant colonies. The “Background” (i.e. no test material added) plate was used as reference for the level of spontaneous or background mutation of the assay organism. The statistical difference was determined using a table provided with the kit.
Score of mutagenicity as per the set criteria of Muta-Chromoplate test kit.

## Acaciaside-B [Ac-B]
Rat spermatozoa; Rat spermatozoa (N = 10), all immobilized within 20 seconds
  MEC as per Sander and Cramer Test: 60 (±2) microgram per ml
Rat spermatozoa; rats
  MEC, Sander-Cramer test: 60 µg/mL
Mouse spermatozoa; Mouse spermatozoa (N = 10), all immobilized within 20 seconds
  MEC as per Sander and Cramer Test: 60 (±2) microgram per ml
Mouse spermatozoa; mice
  MEC, Sander-Cramer test: 60 µg/mL
Human sperm
  Entry of treated spermatozoa into human cervical mucus: none of them crossed into the interface
NL4.3 virus; Ac-B 0.5 microgram per ml, 48 hours
  Percentage inhibition of hiv growth in p4 cell line, Without Pretreatment: 0%
NL4.3 virus; Ac-B 0.5 microgram per ml, virus pretreated 1 hour at 37 degree C, 48 hours
  Percentage inhibition of hiv growth in p4 cell line, Pretreatment with Ac-B: 76.53%
NL4.3 virus; Ac-B 1.0 microgram per ml (0.005 micromoles) vs AZT at 2 micromole
  Anti-HIV activity by X-gal staining, compared with AZT: comparable to or greater than that induced by AZT
NL4.3 virus; Ac-B 1 microgram per ml
  Percentage inhibition of hiv growth in p4 cell line, Without Pretreatment: 0%
NL4.3 virus; Ac-B 1 microgram per ml, virus pretreated
  Percentage inhibition of hiv growth in p4 cell line, Pretreatment with Ac-B: 95.86%
NL4.3 virus; Ac-B 2 microgram per ml
  Percentage inhibition of hiv growth in p4 cell line, Without Pretreatment: 0%
NL4.3 virus; Ac-B 2 microgram per ml, virus pretreated
  Percentage inhibition of hiv growth in p4 cell line, Pretreatment with Ac-B: 96%
NL4.3 virus; Ac-B 2.5 microgram per ml
  Percentage inhibition of hiv growth in p4 cell line, Without Pretreatment: 0%
NL4.3 virus; Ac-B 2.5 microgram per ml, virus pretreated
  Percentage inhibition of hiv growth in p4 cell line, Pretreatment with Ac-B: 95.53%
NL4.3 virus; Ac-B greater than or equal to 1.5 microgram per ml
  Inhibition of viral transmission, Ac-B-treated virus: > 95%
NL4.3 virus; Ac-B ≧1.0 mcg/ml
  Inhibition of viral transmission, Ac-B-treated virus: > 95%
NL4.3 virus; cells infected with untreated virus and cultured in the presence of Ac-B
  Inhibition of viral transmission, untreated virus: no inhibition of viral transmission
Human spermatozoa; Human spermatozoa (N = 5), weakest concentration immobilizing all spermatozoa within 20 seconds
  MEC as per Sander and Cramer Test: 125 microgram per ml and 125 (±7) microgram per ml
Human spermatozoa; human sperm
  EC50 for spermicidal activity in vitro: 22 microgram per ml
  MEC for spermicidal action: 125 microgram
  MEC for spermicidal activity: 125 micro g/ml
  MEC, spermicidal: 125 µg/mL
[1]; Ames Test
  Overall mutagenicity result: non-mutagenic
[1]; Background = 20, Blank = 0
  No. of '+' wells (Muta-Chromoplate score): 18
